Values joined by “and” are separate entries in the source; they are usually repeats but may differ in a detail not shown here. Equal entries are not always repeated.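 48-hour exposure; five concentrations; linearly interpolated endpoints. Here, GI50 denotes the concentration required for 50% inhibition of growth.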 Active and inactive are the calls of the source. No stated cut-off is given here; in the data, active = GI50 up to about 1.1 µM and inactive = higher.
Columns and labels:
Experiment in all cases: NCI anticancer screen, dose series, 48 h
[1] = test system: HCT-116
[2] = test system: OVCAR-4
[3] = test system: A498
[4] = test system: IGROV-1
[5] = test system: SF-295
[6] = test system: COLO 205
[7] = test system: NCI-H460
[8] = test system: NCI-H23
[9] = test system: CCRF-CEM
[10] = test system: TK-10
[11] = test system: MOLT-4
[12] = test system: NCI-H522
[13] = test system: SF-268
[14] = test system: MCF7
[15] = test system: OVCAR-5
[16] = test system: UACC-62
[17] = test system: PC-3
[18] = test system: HOP-92
[19] = test system: CAKI-1
[20] = test system: RPMI-8226
[21] = test system: NCI-H226
[22] = test system: A549
[23] = test system: HL-60
[24] = test system: SN12C
[25] = test system: DU-145
[26] = test system: SK-MEL-2
[27] = test system: 786-0
[28] = test system: NCI/ADR-RES
[29] = test system: EKVX
[30] = test system: Hs-578T
[31] = test system: BT-549
[32] = test system: U-251
[33] = test system: MDA-MB-231
[34] = test system: SW-620
[35] = test system: HCC 2998
[36] = test system: MDA-MB-435
[37] = test system: Malme-3M
[38] = test system: MDA-N
[39] = test system: UACC-257
[40] = test system: RXF 393
[41] = test system: SNB-75
[42] = test system: OVCAR-8
[43] = test system: SF-539
[44] = test system: SK-MEL-28
[45] = test system: KM12
[46] = test system: UO-31
[47] = test system: M14
[48] = test system: SNB-19
[49] = test system: SK-MEL-5
[50] = test system: K562
[51] = test system: HT-29
[52] = test system: SK-OV-3
[53] = test system: T47D
[54] = test system: HCT-15
[55] = test system: SR
[56] = test system: ACHN
[57] = test system: OVCAR-3
[58] = test system: HOP-62
[59] = test system: LOX IMVI
[60] = test system: DMS-273

Cc1c(C)c2c(c(N)c1C#N)C(=O)N(N)C2=O
GI50 [1]: 84.9 µM (inactive)
GI50 [2]: > 100 µM (inactive)
GI50 [3]: 40.4 µM (inactive)
GI50 [4]: > 100 µM (inactive)
GI50 [5]: > 100 µM (inactive)
GI50 [6]: > 100 µM (inactive)
GI50 [7]: > 100 µM (inactive)
GI50 [8]: > 100 µM (inactive)
GI50 [9]: > 100 µM (inactive)
GI50 [10]: > 100 µM (inactive)
GI50 [11]: 61.7 µM (inactive)
GI50 [12]: > 100 µM (inactive)
GI50 [13]: > 100 µM (inactive)
GI50 [14]: > 100 µM (inactive)
GI50 [15]: > 100 µM (inactive)
GI50 [16]: > 100 µM (inactive)
GI50 [17]: > 100 µM (inactive)
GI50 [18]: > 100 µM (inactive)
GI50 [19]: > 100 µM (inactive)
GI50 [20]: > 100 µM (inactive)
GI50 [21]: 78.7 µM (inactive)
GI50 [22]: > 100 µM (inactive)
GI50 [23]: > 100 µM (inactive)
GI50 [24]: > 100 µM (inactive)
GI50 [25]: > 100 µM (inactive)
GI50 [26]: > 100 µM (inactive)
GI50 [27]: 87.9 µM (inactive)
GI50 [28]: > 100 µM (inactive)
GI50 [29]: > 100 µM (inactive)
GI50 [30]: > 100 µM (inactive)
GI50 [31]: > 100 µM (inactive)
GI50 [32]: > 100 µM (inactive)
GI50 [33]: > 100 µM (inactive)
GI50 [34]: 80.5 µM (inactive)
GI50 [35]: > 100 µM (inactive)
GI50 [36]: > 100 µM (inactive)
GI50 [37]: > 100 µM (inactive)
GI50 [38]: > 100 µM (inactive)
GI50 [39]: > 100 µM (inactive)
GI50 [40]: > 100 µM (inactive)
GI50 [41]: 47 µM (inactive)
GI50 [42]: > 100 µM (inactive)
GI50 [43]: > 100 µM (inactive)
GI50 [44]: > 100 µM (inactive)
GI50 [45]: > 100 µM (inactive)
GI50 [46]: 93.3 µM (inactive)
GI50 [47]: > 100 µM (inactive)
GI50 [48]: > 100 µM (inactive)
GI50 [49]: > 100 µM (inactive)
GI50 [50]: > 100 µM (inactive)
GI50 [51]: > 100 µM (inactive)
GI50 [52]: > 100 µM (inactive)
GI50 [53]: > 100 µM (inactive)
GI50 [54]: > 100 µM
GI50 [55]: 26.3 µM (inactive)
GI50 [56]: > 100 µM (inactive)
GI50 [57]: > 100 µM (inactive)

C/C(=N\NC(=S)NCCCNC(=S)N/N=C(\C)c1ccccn1)c1ccccn1
GI50 [1]: 2.88 µM (inactive)
GI50 [2]: 5.28 µM (inactive)
GI50 [3]: 4.97 µM (inactive)
GI50 [4]: 3.9 µM (inactive)
GI50 [5]: 5.27 µM (inactive)
GI50 [6]: 1.8 µM (inactive)
GI50 [7]: 1.29 µM (inactive)
GI50 [8]: 7.33 µM (inactive)
GI50 [9]: 1.16 µM (inactive)
GI50 [10]: 0.619 µM (active)
GI50 [11]: 2.51 µM (inactive)
GI50 [12]: 1.37 µM (inactive)
GI50 [13]: 2.62 µM (inactive)
GI50 [58]: 1.94 µM (inactive)
GI50 [14]: 3.34 µM (inactive)
GI50 [15]: 7.94 µM (inactive)
GI50 [59]: 2.81 µM (inactive)
GI50 [16]: 2.66 µM (inactive)
GI50 [17]: 9.1 µM (inactive)
GI50 [18]: 6.73 µM (inactive)
GI50 [20]: 4.2 µM (inactive)
GI50 [21]: 6.92 µM (inactive)
GI50 [22]: 3.48 µM (inactive)
GI50 [23]: 1.35 µM (inactive)
GI50 [24]: 1.98 µM (inactive)
GI50 [25]: 2.26 µM (inactive)
GI50 [26]: 2.06 µM (inactive)
GI50 [27]: 0.617 µM (active)
GI50 [28]: 2.22 µM (inactive)
GI50 [29]: 3.79 µM (inactive)
GI50 [30]: > 47.6 µM (inactive)
GI50 [31]: 3.13 µM (inactive)
GI50 [32]: 2.77 µM (inactive)
GI50 [33]: 6.21 µM (inactive)
GI50 [34]: 22.5 µM (inactive)
GI50 [35]: 5.71 µM (inactive)
GI50 [36]: 3.23 µM (inactive)
GI50 [37]: 2.42 µM (inactive)
GI50 [38]: 9.27 µM (inactive)
GI50 [39]: 2.75 µM (inactive)
GI50 [40]: 3.03 µM (inactive)
GI50 [41]: 2.95 µM (inactive)
GI50 [42]: 1.71 µM (inactive)
GI50 [43]: 2.42 µM (inactive)
GI50 [44]: 4.99 µM (inactive)
GI50 [45]: 2.94 µM (inactive)
GI50 [46]: 1.83 µM (inactive)
GI50 [47]: 0.733 µM (active)
GI50 [48]: > 34.8 µM (inactive)
GI50 [49]: 2.02 µM (inactive)
GI50 [50]: 4.06 µM (inactive)
GI50 [51]: 2 µM (inactive)
GI50 [52]: 2.01 µM (inactive)
GI50 [53]: 3.51 µM (inactive)
GI50 [54]: 1.3 µM
GI50 [55]: 0.968 µM (active)
GI50 [56]: 1.4 µM (inactive)
GI50 [57]: 2.95 µM (inactive)

O=c1[nH]c(=O)n([C@H]2C[C@H](O)[C@@H](CO)O2)cc1F [FLOXURIDINE]
GI50 [15]: 103 µM (inactive) and > 89.9 µM (inactive)
GI50 [60]: 0.319 µM (active)

From ChEMBL document CHEMBL1201862, “PubChem BioAssay data set” (2004)
